According to the supplement of paper PMC10307832:

Tests used:
Assay in all cases: relative viability (nuclei count vs DMSO), 5 days (fraction); higher = more cells survive
[1] = compound: C1CC2=C(C1)C=C(C=C2)OC3=NC(=C4C(=N3)N(C=N4)CC5=CC=C(C=C5)C6=CC=CC=C6)N[C@@H](CC7=CC=CC=C7)CO [QS11] + CC(=O)Nc1cccc(-n2c(=O)n(C3CC3)c(=O)c3c(Nc4ccc(I)cc4F)n(C)c(=O)c(C)c32)c1 [Trametinib] (partner 0.02 µM)
Summary of the method: (§1)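 Lung cancer cell lines were seeded in 1536-well plates and dosed by pin tool the next day, with either a single drug or a fixed anchor-drug dose combined with five library-drug doses (not always all listed) spaced in √10 steps. Five days later, one step fixed the cells and stained their nuclei (final 0.05% Triton X-100, 1% formaldehyde, 1 ug/ml Hoechst), and nuclei were counted on 4× images. Relative viability is the nuclei count in treated wells divided by the count in vehicle wells, and each value is the median of duplicate plates.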

[2] = compound: C1CC2=C(C1)C=C(C=C2)OC3=NC(=C4C(=N3)N(C=N4)CC5=CC=C(C=C5)C6=CC=CC=C6)N[C@@H](CC7=CC=CC=C7)CO [QS11] + C[C@@H](Oc1cc(-c2cnn(C3CCNCC3)c2)cnc1N)c1c(Cl)ccc(F)c1Cl [Crizotinib] (partner 1 µM)
Summary of the method: as §1

[3] = compound: CC1=C(C=C(C=C1)NC(=O)C2=CC(=CC=C2)C(C)(C)C#N)NC3=CC4=C(C=C3)N=CN(C4=O)C [AZ628] + O=C(c1cc(Cc2n[nH]c(=O)c3ccccc23)ccc1F)N1CCN(C(=O)C2CC2)CC1 [Olaparib] (partner 8 µM)
Summary of the method: as §1

[4] = compound: CC1=C(C=C(C=C1)NC(=O)C2=CC(=CC=C2)C(C)(C)C#N)NC3=CC4=C(C=C3)N=CN(C4=O)C [AZ628] + CS(=O)(=O)N1CCN(Cc2cc3nc(-c4cccc5[nH]ncc45)nc(N4CCOCC4)c3s2)CC1 [Pictilisib] (partner 1 µM)
Summary of the method: as §1

| Cell Line | relative viability ([1]; first compound 0.253 µM) | relative viability ([1]; first compound 0.8 µM) | relative viability ([1]; first compound 2.53 µM) | relative viability ([1]; first compound 8 µM) | relative viability ([2]; first compound 0.08 µM) | relative viability ([2]; first compound 0.253 µM) | relative viability ([2]; first compound 0.8 µM) | relative viability ([2]; first compound 2.53 µM) | relative viability ([2]; first compound 8 µM) | relative viability ([3]; first compound 0.08 µM) | relative viability ([3]; first compound 0.253 µM) | relative viability ([3]; first compound 0.8 µM) | relative viability ([3]; first compound 2.53 µM) | relative viability ([3]; first compound 8 µM) | relative viability ([4]; first compound 0.08 µM) | relative viability ([4]; first compound 0.253 µM) | relative viability ([4]; first compound 0.8 µM) | relative viability ([4]; first compound 2.53 µM) | relative viability ([4]; first compound 8 µM) | relative viability ([1]; first compound 0.08 µM) |
| --- | --- | --- | --- | --- | --- | --- | --- | --- | --- | --- | --- | --- | --- | --- | --- | --- | --- | --- | --- | --- |
| PC-3 [JPC-3] | 0.712 | 0.674 | 0.641 | 0.568 | 0.957 | 0.97 | 0.949 | 1.03 | 1.01 | 1.1 | 1.16 | 1.22 | 1.23 | 1.1 | 0.767 | 0.835 | 0.861 | 0.814 | 0.525 | – |
| NCI-H520 | 0.789 | 0.83 | 0.65 | 0.755 | – | 0.907 | 0.831 | 0.587 | 0.932 | 0.358 | 0.32 | 0.325 | 0.396 | 0.23 | 0.312 | 0.313 | 0.273 | 0.212 | 0.204 | 0.676 |
| HCC-827 | 0.559 | 0.595 | 0.698 | 0.557 | 0.917 | 0.914 | 0.643 | 0.854 | 0.787 | 0.652 | 0.621 | 0.704 | 0.661 | 0.528 | 0.98 | 0.994 | 0.988 | 0.984 | 0.826 | 0.507 |
| NCI-H1666 | 0.852 | 0.868 | 0.8 | 0.749 | 0.995 | 0.808 | 0.668 | 0.52 | 0.432 | 0.733 | 0.745 | 0.671 | 0.739 | 0.782 | 0.404 | 0.296 | 0.339 | 0.362 | 0.313 | 0.798 |
| NCI-H322M | 0.543 | 0.565 | 0.582 | 0.513 | 0.934 | 0.835 | 0.79 | 0.754 | 1 | 0.805 | 0.755 | 0.819 | 0.774 | 0.783 | 0.554 | 0.473 | 0.482 | 0.469 | 0.412 | 0.547 |
| NCI-H838 | 0.535 | 0.355 | 0.469 | 0.383 | 0.937 | 0.788 | 0.576 | 0.746 | 0.761 | 0.765 | 0.821 | 0.713 | 0.727 | 0.623 | 0.523 | 0.559 | 0.356 | 0.403 | 0.365 | 0.558 |
| NCI-H2228 | 0.392 | 0.507 | 0.788 | 0.547 | 0.425 | 0.467 | 0.457 | 0.356 | 0.41 | 0.585 | 0.583 | 0.847 | 0.698 | 0.541 | 0.397 | 0.32 | 0.368 | 0.329 | 0.264 | 0.483 |
| NCI-H596 | 0.755 | 0.692 | 0.683 | 0.706 | 1.03 | 0.862 | 0.963 | 0.991 | 1.04 | 0.76 | 0.793 | 0.703 | 0.799 | 0.651 | 0.36 | 0.383 | 0.382 | 0.376 | 0.42 | 0.776 |
| NCI-H647 | 0.428 | 0.411 | 0.575 | 0.544 | 1.25 | 1.3 | 0.937 | 0.992 | 0.706 | 0.848 | 0.616 | 0.495 | 0.551 | 0.573 | 0.385 | 0.163 | 0.313 | 0.247 | 0.27 | 0.472 |
| NCI-H441 | 0.424 | 0.545 | 0.56 | 0.486 | 0.776 | 0.847 | 0.621 | 0.6 | 0.707 | 0.547 | 0.532 | 0.738 | 0.699 | 0.542 | 0.417 | 0.45 | 0.444 | 0.403 | 0.283 | 0.59 |
